Assay [1] relates to human breast cancer MCF-7. Description: MTT antiproliferative assay, MCF-7. As to conditions: Homo sapiens, MCF7, 48 h, 0–50 μM, read-out: Antiproliferative activity IC50 ± SEM, MCF-7. Format: cell-based. As for the experimental part: (§1) The in vitro antiproliferative activity of 33 TMPH compounds was evaluated by MTT assay ([Medica et al., 2022]). Five types of TNBC-related cell lines (human breast cancer MCF-7 and MDA-MB-231, mouse breast cancer 4T1, mouse fibroblast L929, and human umbilical vein endothelial HUVEC cell lines) were used. The cell lines were obtained from the Shanghai Institute of Biochemistry and Cell Biology of the Chinese Academy of Sciences (Shanghai, China). The cell lines were cultured in DMEM supplemented with 1% penicillin–streptomycin solution (100×) and 10% FBS at 37°C under a humid atmosphere containing 5% CO2. After cell passage, cryopreservation, and resuscitation, the growth-inhibitory effects against the five cell lines were determined by MTT assay. The 33 TMPH compounds and the reference control drug cisplatin were dissolved in 0.1% DMSO solution. The cell lines were maintained in 96-well plates and subjected to each test compound (0–50 μM) at 37°C for 48 h. After treatment with 1 mg/ml MTT solution for 4 h, the formazan crystals were dissolved in each well. A microplate reader (Varioskan Flash 3001, Thermo Scientific) was used to determine the cell viability at 490 nm, and each experiment was repeated four times. The collected data were expressed as the mean ± SEM. The inhibitory concentration of the 34 compounds at 50% (IC50) was calculated via concentration–inhibition relationship regression by SPSS software.
Background: Tetrazolium assays rely on reduction of a dye to a coloured formazan, in cell work by metabolically active cells.

In assay [2] the test system is human umbilical vein endothelial HUVEC. The assay is described as follows: MTT antiproliferative assay, HUVEC. The following applies: Homo sapiens, HUVEC, 48 h, 0–50 μM, read-out: Antiproliferative activity IC50 ± SEM, HUVEC. Format: cell-based. As for the experimental part:
as §1

The test system of assay [3] is MDA-MB-231 cells. Description: Clonal formation assay of MDA-MB-231 cells. The class given is cell-based, human. As to conditions: 0.5, 1.0 and 2.0 μM for 10 days. As for the experimental part: Human breast cancer MDA-MB-231 cells were cultured in a six-well plate with 1,500 cells per well and incubated for 24 h at 37°C under a humid atmosphere containing 5% CO2. Then, the MDA-MB-231 cells were incubated with compound 12–9 at final concentrations of 0, 0.5, 1.0, and 2.0 μM for 10 days. The treated cells were washed with PBS and fixed with 4% paraformaldehyde for 15 min at room temperature. Then, the end product of the cell colonies was visualized by staining with 0.1% crystal violet for 10 min. The images were photographed using a handy camera, and the number of cell colonies was assessed using open Image J software (National Institutes of Health). Each experiment was repeated three times. A group of >50 cells was defined as one colony formation.

The subject of another assay is mouse breast cancer 4T1. The assay is described as follows: MTT antiproliferative assay, 4T1. The following applies: Mus musculus, 48 h, 0–50 μM, read-out: Antiproliferative activity IC50 ± SEM, 4T1. The class given is cell-based. On the procedure:
as §1

Assay [4] deals with MDA-MB-231 cells. Description: Hoechst 33 342 staining of MDA-MB-231 cells. The class given is cell-based, human. As to conditions: 1.0 μM, 48 h. As for the experimental part: The induction of apoptosis by compound 12–9 was visually evaluated in MDA-MB-231 cells by Hoechst 33 342 staining. The test cells were transferred to six-well plates at a density of 1 × 10^5 cells. […] Then, the MDA-MB-231 cells were stained with Hoechst 33 342 solution (10 μg/ml in the culture medium, Beyotime Institute of Biotechnology, Shanghai, China) at 37°C in a dark room for 20 min after incubation with the test compound 12–9. The cells were then washed twice with a serum-free medium to remove the leftover dye. The apoptotic cells stained by Hoechst 33 342 were imaged using CLSM (Carl-Zeiss LSM 710).

In assay [5] the test system is MCF-7, MDA-MB-231, 4T1, L929 and HUVEC cell lines. The assay is described as follows: MTT antiproliferative assay, statements over all five tested cell lines. The class given is cell-based. As to conditions: range over all five tested cell lines, read-out: IC50 values ranging over the tested cell lines. As for the experimental part: as §1
Assay [6] concerns MDA-MB-231 cells. The assay is described as follows: Apoptosis analysis by annexin V-FITC/PI staining (flow cytometry). Format: cell-based, human. As to conditions: 48 h; for apoptotic ratio: control 13.7%. As for the experimental part: Apoptosis induced by TMPH compound 12–9 was evaluated by annexin V-FITC/PI staining. Briefly, MDA-MB-231 cells in the logarithmic growth phase were cultured in a six-well plate and incubated for 24 h at 37°C under a humid atmosphere containing 5% CO2. […] The incubated cells were washed twice with PBS, digested by trypsin, and centrifuged at 1,000 rpm for 5 min. The collected MDA-MB-231 cells were transferred to a 1.5-ml tube and resuspended in a solution of 200 μl of annexin V-FITC and 5 μl of PI. After incubation in a dark environment (covered with aluminum foil) for 15 min at room temperature, the collected cells were evaluated by flow cytometry (CyFlow®Cube 6, Sysmex). The apoptosis analysis data were shown as a pseudo color map and analyzed by FlowJo software.
(Flow cytometry measures light scatter and fluorescence of single cells or particles in a stream.)

Assay [7] has as its system human breast cancer MDA-MB-231. The assay is described as follows: MTT antiproliferative assay, MDA-MB-231. Format: cell-based. As for the experimental part:
as §1

A further assay deals with mouse fibroblast L929. Description: MTT antiproliferative assay, L929. The class given is cell-based. As to conditions: Mus musculus, L929, 48 h, 0–50 μM, read-out: Antiproliferative activity IC50 ± SEM, L929. As for the experimental part: as §1

For orientation: IC50 means the concentration that inhibits the measured activity by half. `Cc1nc(C)c(C(=O)NCCCCCCCCCCCCNC(=O)c2ccc3cc[nH]c3c2)nc1C` [12–9]: the IC50 in assay [1] was 1.11 ± 0.15 µM; in assay [2], 3.82 ± 0.24 µM; with mouse breast cancer 4T1, 1.16 ± 0.18 µM; in assay [5], 1.61 to 19.5 µM; in [7] (Homo sapiens, MDA-MB-231, MTT, 48 h, 0–50 μM, read-out: Antiproliferative activity IC50 ± SEM, MDA-MB-231), 0.84 ± 0.02 µM; with mouse fibroblast L929, 3.16 ± 0.13 µM. For the same compound, the “colony formation versus untreated control” value in the assay with MDA-MB-231 cells [3] is “significantly fewer and smaller”. Further, in the assay with MDA-MB-231 cells [4], the “apoptotic morphology, Hoechst 33 342 staining” value was “appeared shrunken and showed strong blue fluorescence”. Besides, the “Q1, necrotic cells (annexin V−/PI+)” value with MDA-MB-231 cells [6] (0.5 μM) amounted to 0.20; in the assay on MDA-MB-231 cells [6] (1.0 μM), 0.37; in the assay on MDA-MB-231 cells [6] (2.0 μM) it was 1.03. The “Q2, late apoptotic or necrotic cells (annexin V+/PI+)” value stood at 15.2 in the assay with MDA-MB-231 cells [6] (0.5 μM), 24.8 in the assay on MDA-MB-231 cells [6] (1.0 μM) and 35.3 in the assay on MDA-MB-231 cells [6] (2.0 μM). Further, the figures for the “Q3, early apoptotic cells (annexin V+/PI−)” value with MDA-MB-231 cells [6] (0.5 μM), with MDA-MB-231 cells [6] (1.0 μM) and in the assay with MDA-MB-231 cells [6] (2.0 μM) were 8.76, 7.84 and 11.6, respectively. The “Q4, living cells (annexin V−/PI−)” value was 75.9 in the assay with MDA-MB-231 cells [6] (0.5 μM), 67.0 in the assay on MDA-MB-231 cells [6] (1.0 μM) and 52.1 with MDA-MB-231 cells [6] (2.0 μM). Further, the apoptotic ratio came to 23.96% in the assay on MDA-MB-231 cells [6] (0.5 μM), 32.64% with MDA-MB-231 cells [6] (1.0 μM) and 46.9% with MDA-MB-231 cells [6] (2.0 μM). Further, the “SI, selectivity index” value in [7] (SI = IC50 (L929)/IC50 (MDA-MB-231)) is listed as 3.76.

Values taken from PMC9358002, “Synthesis and Discovery of Ligustrazine–Heterocycle Derivatives as Antitumor Agents” (Frontiers in Chemistry, 2022).
